Experimental findings from ChEMBL document CHEMBL1158570, “Secondary metabolites from the roots of Litsea hypophaea and their antitubercular activity” (2010) are described below.

Broadly, the MIC is the lowest concentration found to suppress growth. Lower therefore signals a more susceptible organism.

≈ marks a conversion by molar mass, not a printed value.

The test system of the assay is Mycobacterium tuberculosis. Kind of assay: Antimycobacterial activity against Mycobacterium tuberculosis H37Rv after 2 weeks. It counts as functional. The note with it: 336 h.
`COc1cc(C2c3c(cc(OC)c(O)c3OC)C=C(C(=O)NCCc3ccc(O)cc3)C2C(=O)NCCc2ccc(O)cc2)cc(OC)c1O` (configuration not stated) showed a minimum inhibitory concentration (MIC) greater than 100 µg/mL.
The compound `COc1cc(/C=C/C(=O)NCCc2ccc(O)c(OC)c2)ccc1O` came in with an MIC of 1.6 µg/mL (≈ 4.66 µM).
In turn, `CC[C@@H](CO)NCCN[C@@H](CC)CO` [ETHAMBUTOL] had a minimal inhibitory concentration (MIC) of 6.25 µg/mL (≈ 30.6 µM).
For `COc1cc(OC)c(C[C@@H](O)Cc2ccc(OC)c(OC)c2)c(OC)c1` [HYPOPHAOL] the value was 100 µg/mL (≈ 276 µM).
For `CCCCCCCCCCCCC/C=C1/C(=O)O[C@](C)(OC)[C@@H]1O` [LITSEAKOLIDE L], 25 µg/mL (≈ 73.4 µM) was the least that counted as inhibitory (MIC). Against the preceding compound, the MIC is about 4-fold lower.
Consider `COc1cc(/C=C/C(=O)NCCc2ccc(O)cc2)ccc1O` [N-TRANS-FERULOYL TYRAMINE], for which 60 µg/mL (≈ 191 µM) was the least that counted as inhibitory (MIC).
`COc1cc(/C=C/C(=O)NCCc2ccc(O)cc2)cc(OC)c1O` [TRANS-N-SINAPOYLTYRAMINE] returned a minimal inhibitory concentration (MIC) greater than 100 µg/mL.
